Measurements from patent US6723522B1, “Sodium bicarbonate cotransporter protein” (Takeda Chemical Industries, Ltd., priority 1998, dated 2004).

Test system: human heart-derived protein hNBC2b (Na+—HCO3− cotransporter)
Assay: Analysis of functions of human heart-derived protein by intracellular pH measurement (BCECF, ammonium pre-pulse) in hNBC2b-33/CHO-K1 cell
Assay type: cell-based
Settings: DIDS final concentration 100 μM, 1 mM amyloride present
Method: Data is expressed as mean±standard error. Comparison between 2 groups was carried out by T test and p<0.001 was determined to be significant. hNBC2b-33/CHO-K1 cell which had been cultured in Ham F12 medium (manufactured by Nissuiseiyaku) containing 10% bovine fetal serum (manufactured by Life Technologies, Inc.; USA) and wild type CHO-K1 cell as a control were seeded on a 96-well white plate to 2×10^4 cells/well, and cultured in a carbonic gas incubator at 37° C. for 48 hours. […] The solution was aspiration-removed, washed with 150 μl of A solution, the solution was aspiration-removed, 150 μl of A solution containing 1 mM amyloride (manufactured by Sigma) was added, and variation in an intracellular pH was measured with a fluorescent drug screening system FDSS 2000 (Hamamatsu Photonics). 200 μl of C solution (115 mM sodium chloride, 25 mM potassium chloride, 25 mM sodium bicarbonate, 0.8 mM dipotassium phosphate, 0.2 mM monopotassium phosphate, 1 mM potassium chloride, 1 mM magnesium chloride, 1 mM amyloride (manufactured by Sigma), 10 mM HEPES, pH 7.4) was added, and an increased amount of an intracellular pH increased in 1 minute (a ratio of fluorescent values at 450 nm and 490 nm (450 nm/490 nm)) was calculated. […]

For `O=S(=O)(O)c1cc(N=C=S)ccc1C=Cc1ccc(N=C=S)cc1S(=O)(=O)O` [DIDS, 4,4′-diisothiocyanatostilbene-2,2′-disulfonic acid], the “increase in an intracellular pH after addition of C solution containing sodium ions and bicarbonate ions (ratio of fluorescent values 450 nm/490 nm)” value was “suppressed”.
